This passage reports T/C results from PubChem BioAssay AID248 (DTP/NCI, 2004).

SMILES strings stand for the structures. Several values for one entry are separate records, joined by “and”; a condition that tells them apart may be missing. Identical values can stand only once. Toxic doses and inconclusive results are not listed.

For this experiment, the system named is L1210 leukemia ip in BDF1 mice, survival T/C. Nature of the experiment: NCI In Vivo Anticancer Drug Screen. Data for tumor model L1210 Leukemia (intraperitoneal) in B6D2F1 (BDF1) mice. The following applies: endpoint: mean survival time, higher = longer survival. Put shortly: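 Value reflects the ratio of survival in compound-treated mice to survival in vehicle-treated controls, with both groups carrying the same transplanted tumor.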

The mark [1] stands for this setting: dose: 100.0 mg/kg/injection, schedule: Q01DX001 (ip), vehicle: carboxymethylcellulose (CMC).
Setting [2] is: dose: 100.0 mg/kg/injection, schedule: Q04DX003 (ip), vehicle: saline with Tween-80.
Setting [3] is: dose: 200.0 mg/kg/injection, schedule: Q04DX003 (ip), vehicle: saline with Tween-80.
Setting [4] is: dose: 400.0 mg/kg/injection, schedule: Q04DX003 (ip), vehicle: saline with Tween-80.
Setting [5] is: dose: 400.0 mg/kg/injection, schedule: Q04DX003 (ip), vehicle: saline.
[6] abbreviates: dose: 100.0 mg/kg/injection, schedule: Q04DX002 (ip), vehicle: saline with Tween-80.
Where [7] appears, read: dose: 400.0 mg/kg/injection, schedule: Q04DX002 (ip), vehicle: saline with Tween-80.
The mark [8] stands for this setting: dose: 100.0 mg/kg/injection, schedule: Q01DX009 (ip), vehicle: Klucel (hydroxypropylcellulose) (HPC).

`O=c1[nH]cnc2c1c(Br)cn2C1OC(CO)C(O)C1O` (configuration not stated): the T/C is, setting by setting: under setting [1], 110 % of control; (dose: 200.0 mg/kg/injection, schedule: Q01DX001 (ip), vehicle: carboxymethylcellulose (CMC)) 112 % of control; (dose: 400.0 mg/kg/injection, schedule: Q01DX001 (ip), vehicle: carboxymethylcellulose (CMC)) 121 % of control.
Consider `O=C(CCBr)NCNC(=O)CCBr`, for which the T/C was 114 % of control (dose: 53.0 mg/kg/injection, schedule: Q04DX003 (ip), vehicle: Klucel (hydroxypropylcellulose) (HPC)); 109 % of control (dose: 80.0 mg/kg/injection, schedule: Q04DX003 (ip), vehicle: Klucel (hydroxypropylcellulose) (HPC)); 86 % of control (dose: 100.0 mg/kg/injection, schedule: Q01DX009 (ip), vehicle: saline); 113 % of control under setting [2]; 116 % of control (dose: 120.0 mg/kg/injection, schedule: Q04DX003 (ip), vehicle: Klucel (hydroxypropylcellulose) (HPC)); 117 % of control under setting [3]. Moreover, the T/C reads like this: (dose: 264.0 mg/kg/injection, schedule: Q04DX003 (ip), vehicle: acetone) 153 % of control; (dose: 266.0 mg/kg/injection, schedule: Q04DX003 (ip), vehicle: Klucel (hydroxypropylcellulose) (HPC)) 154 % of control; (dose: 266.0 mg/kg/injection, schedule: Q04DX003 (ip), vehicle: saline) 114 % of control; (dose: 400.0 mg/kg/injection, schedule: Q04DX003 (ip), vehicle: Klucel (hydroxypropylcellulose) (HPC)) 170 % of control; (dose: 400.0 mg/kg/injection, schedule: Q04DX003 (ip), vehicle: acetone) 113 % of control; under setting [4], 151 % of control. Moreover, the T/C under setting [5] was 120 % of control.
In the case of `NC(=O)N/N=C/c1ccc[n+]([O-])c1`, the T/C was 102 % of control (dose: 37.5 mg/kg/injection, schedule: Q04DX002 (ip), vehicle: saline with Tween-80); 108 % of control (dose: 75.0 mg/kg/injection, schedule: Q04DX002 (ip), vehicle: saline with Tween-80); 86 % of control under setting [6]; 97 % of control (dose: 150.0 mg/kg/injection, schedule: Q04DX002 (ip), vehicle: saline with Tween-80); 96 % of control under setting [7].
As to `COC(=O)C1OCOC2C(CO)OCOC12` (configuration not stated), the T/C is 91 % of control (dose: 100.0 mg/kg/injection, schedule: Q04DX002 (ip), vehicle: saline); 91 % of control under setting [2]; 117 % of control (dose: 200.0 mg/kg/injection, schedule: Q04DX002 (ip), vehicle: saline); 86 % of control under setting [3]; 106 % of control (dose: 400.0 mg/kg/injection, schedule: Q04DX002 (ip), vehicle: saline).
With `O=Cc1ccc(O)c(CN2CCCCC2)c1`, the T/C reads like this: (dose: 6.25 mg/kg/injection, schedule: Q01DX009 (ip), vehicle: saline) 94 % of control; (dose: 6.25 mg/kg/injection, schedule: Q04DX003 (ip), vehicle: saline) 100 % of control; (dose: 12.5 mg/kg/injection, schedule: Q01DX009 (ip), vehicle: saline) 107 % of control; (dose: 12.5 mg/kg/injection, schedule: Q04DX003 (ip), vehicle: saline) 96 % of control; (dose: 25.0 mg/kg/injection, schedule: Q01DX009 (ip), vehicle: saline) 96 % of control; (dose: 25.0 mg/kg/injection, schedule: Q04DX003 (ip), vehicle: saline) 103 % of control.
Take `Cc1cc2cc3ccc(Cl)nn3c2n[n+]1[O-]`: the T/C by setting is: (dose: 62.5 mg/kg/injection, schedule: Q04DX002 (ip), vehicle: Klucel (hydroxypropylcellulose) (HPC)) 100 % of control; (dose: 125.0 mg/kg/injection, schedule: Q04DX002 (ip), vehicle: Klucel (hydroxypropylcellulose) (HPC)) 122 % of control.
For `COC(=O)C1/C(=C/c2ccccc2)C(=O)c2ccccc21` (configuration not stated), the T/C is 87 % of control under setting [6]; 87 % of control (dose: 200.0 mg/kg/injection, schedule: Q04DX002 (ip), vehicle: saline with Tween-80); 94 % of control under setting [7].
As for `CCCCCCCCN(C)/N=N/c1nc[nH]c1C(N)=O`, the T/C under setting [8] is 113 % of control.
`O=C1C=CC(=O)N1c1ccc(Cl)cc1Br`: the T/C (dose: 5.0 mg/kg/injection, schedule: Q01DX009 (ip), vehicle: saline with Tween-80) was 91 % of control; the T/C (dose: 10.0 mg/kg/injection, schedule: Q01DX009 (ip), vehicle: saline with Tween-80) was 91 % of control; the T/C (dose: 20.0 mg/kg/injection, schedule: Q01DX009 (ip), vehicle: saline with Tween-80) is 91 % of control.
With `C/C(O)=C(\C#N)c1ccc(Cl)cc1`, the T/C reads like this: (dose: 12.5 mg/kg/injection, schedule: Q01DX001 (ip), vehicle: carboxymethylcellulose (CMC)) 100 % of control; (dose: 12.5 mg/kg/injection, schedule: Q04DX003 (ip), vehicle: carboxymethylcellulose (CMC)) 100 % of control and 104 % of control; (dose: 25.0 mg/kg/injection, schedule: Q01DX001 (ip), vehicle: carboxymethylcellulose (CMC)) 108 % of control; (dose: 25.0 mg/kg/injection, schedule: Q01DX009 (ip), vehicle: carboxymethylcellulose (CMC)) 103 % of control and 113 % of control; (dose: 25.0 mg/kg/injection, schedule: Q04DX002 (ip), vehicle: carboxymethylcellulose (CMC)) 99 % of control and 100 % of control; (dose: 25.0 mg/kg/injection, schedule: Q04DX003 (ip), vehicle: carboxymethylcellulose (CMC)) 98 % of control and 90 % of control. Also, the T/C is 103 % of control and 111 % of control (dose: 50.0 mg/kg/injection, schedule: Q01DX001 (ip), vehicle: carboxymethylcellulose (CMC)); 96 % of control and 100 % of control (dose: 50.0 mg/kg/injection, schedule: Q01DX009 (ip), vehicle: carboxymethylcellulose (CMC)); 102 % of control and 103 % of control (dose: 50.0 mg/kg/injection, schedule: Q04DX002 (ip), vehicle: carboxymethylcellulose (CMC)); 94 % of control and 98 % of control (dose: 50.0 mg/kg/injection, schedule: Q04DX003 (ip), vehicle: carboxymethylcellulose (CMC)); 97 % of control and 102 % of control under setting [1]; 94 % of control (dose: 100.0 mg/kg/injection, schedule: Q01DX009 (ip), vehicle: carboxymethylcellulose (CMC)). Further, the T/C (dose: 100.0 mg/kg/injection, schedule: Q04DX002 (ip), vehicle: carboxymethylcellulose (CMC)) is 93 % of control and 90 % of control.
Take `Nc1nnnn1-c1cccc(Cl)c1`: the T/C was 96 % of control under setting [2], 96 % of control under setting [3] and 94 % of control under setting [4].
`CCc1nc(N)nc(N)c1-c1ccc(Cl)cc1`: the T/C runs as follows: (dose: 22.0 mg/kg/injection, schedule: Q01DX Z (ip), vehicle: carboxymethylcellulose (CMC)) 120 % of control; (dose: 25.0 mg/kg/injection, schedule: Q01DX015 (ip), vehicle: carboxymethylcellulose (CMC)) 110 % of control; (dose: 35.0 mg/kg/injection, schedule: Q01DX Z (ip), vehicle: carboxymethylcellulose (CMC)) 118 % of control; (dose: 50.0 mg/kg/injection, schedule: Q01DX015 (ip), vehicle: carboxymethylcellulose (CMC)) 116 % of control; (dose: 75.0 mg/kg/injection, schedule: Q01DX Z (ip), vehicle: carboxymethylcellulose (CMC)) 91 % of control; (dose: 200.0 mg/kg/injection, schedule: Q01DX015 (ip), vehicle: carboxymethylcellulose (CMC)) 104 % of control.
For `CCCCN1C(=O)C2CCc3ccncc3C2C1=O` (configuration not stated), the T/C (dose: 100.0 mg/kg/injection, schedule: Q04DX003 (ip), vehicle: saline) is 103 % of control; the T/C (dose: 200.0 mg/kg/injection, schedule: Q04DX003 (ip), vehicle: saline) was 97 % of control; the T/C under setting [5] is 103 % of control.
As to `CCc1ccc(NS(=O)(=O)c2c(C)cc(C)cc2C)cc1`, the T/C under setting [8] was 101 % of control; the T/C (dose: 200.0 mg/kg/injection, schedule: Q01DX009 (ip), vehicle: Klucel (hydroxypropylcellulose) (HPC)) was 105 % of control; the T/C (dose: 400.0 mg/kg/injection, schedule: Q01DX009 (ip), vehicle: Klucel (hydroxypropylcellulose) (HPC)) was 97 % of control.
`Cc1ccc(N=C(N)NC#N)cc1`: the T/C by setting is: under setting [2], 89 % of control; under setting [3], 86 % of control; under setting [4], 88 % of control.
